# Measurements published in ChEMBL document CHEMBL1641430, “Cholinergic and neuroprotective drugs for the treatment of Alzheimer and neuronal vascular diseases. II. Synthesis, biological assessment, and molecular modelling of new tacrine analogues from highly substituted 2-aminopyridine-3-carbonitriles” (Bioorg Med Chem, 2011).
# Activity calls are given as the source filed them. The rule behind the calls is not given here.
# How the values were obtained:
# Acetylcholinesterase [1] = biological target: Acetylcholinesterase (Electrophorus electricus, UniProt O42275)
# Sequence of Acetylcholinesterase (Electrophorus electricus, UniProt O42275) (O42275 whole entry): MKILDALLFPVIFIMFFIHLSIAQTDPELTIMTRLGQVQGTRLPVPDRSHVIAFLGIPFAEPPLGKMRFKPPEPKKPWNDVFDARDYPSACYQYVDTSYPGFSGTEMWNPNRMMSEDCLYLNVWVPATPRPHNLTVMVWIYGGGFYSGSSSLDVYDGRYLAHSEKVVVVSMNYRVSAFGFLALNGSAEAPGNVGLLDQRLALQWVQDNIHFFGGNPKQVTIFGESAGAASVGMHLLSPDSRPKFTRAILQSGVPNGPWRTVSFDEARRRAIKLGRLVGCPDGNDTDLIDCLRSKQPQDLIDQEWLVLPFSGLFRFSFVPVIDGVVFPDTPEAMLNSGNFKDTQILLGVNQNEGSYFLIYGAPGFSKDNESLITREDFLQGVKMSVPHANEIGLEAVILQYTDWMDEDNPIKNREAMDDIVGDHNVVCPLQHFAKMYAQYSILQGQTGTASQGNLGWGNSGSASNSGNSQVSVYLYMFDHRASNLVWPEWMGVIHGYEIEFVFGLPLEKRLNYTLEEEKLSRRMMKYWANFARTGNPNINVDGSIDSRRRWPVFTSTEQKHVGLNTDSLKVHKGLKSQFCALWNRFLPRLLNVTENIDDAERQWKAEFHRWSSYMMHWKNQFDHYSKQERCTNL
# Description: Inhibition of Electrophorus electricus AChE by Ellman's method
# SH-SY5Y [2] = assay: Neuroprotection against rotenone/oligomycin-A-indced human SH-SY5Y cell death assessed as protective effect at 1 uM after 2 hrs by MTT assay; type: functional
# Acetylcholinesterase [3] = biological target: T1, Acetylcholinesterase (Bos taurus, UniProt P23795)
# T1 sequence (P23795 whole entry): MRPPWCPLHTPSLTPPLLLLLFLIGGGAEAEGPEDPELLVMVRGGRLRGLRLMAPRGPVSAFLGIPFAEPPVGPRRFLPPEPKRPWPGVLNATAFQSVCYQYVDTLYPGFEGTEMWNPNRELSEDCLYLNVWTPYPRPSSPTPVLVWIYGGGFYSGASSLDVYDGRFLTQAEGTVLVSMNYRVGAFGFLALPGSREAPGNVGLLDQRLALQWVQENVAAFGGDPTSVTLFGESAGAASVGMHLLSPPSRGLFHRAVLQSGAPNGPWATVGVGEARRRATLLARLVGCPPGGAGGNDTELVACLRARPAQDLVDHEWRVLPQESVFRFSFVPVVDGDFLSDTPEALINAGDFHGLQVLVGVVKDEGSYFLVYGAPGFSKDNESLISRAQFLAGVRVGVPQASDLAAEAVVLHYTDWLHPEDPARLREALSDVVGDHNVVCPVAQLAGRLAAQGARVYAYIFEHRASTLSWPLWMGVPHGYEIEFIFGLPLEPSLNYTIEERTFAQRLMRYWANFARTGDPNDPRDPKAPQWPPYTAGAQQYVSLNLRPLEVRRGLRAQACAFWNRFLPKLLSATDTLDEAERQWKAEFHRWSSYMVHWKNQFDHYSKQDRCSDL
# Description: Inhibition of bovine erythrocytes AChE by Ellman's method
# Cholinesterase = Cholinesterase (Equus caballus, UniProt P81908)
# Sequence of Cholinesterase (P81908 whole entry): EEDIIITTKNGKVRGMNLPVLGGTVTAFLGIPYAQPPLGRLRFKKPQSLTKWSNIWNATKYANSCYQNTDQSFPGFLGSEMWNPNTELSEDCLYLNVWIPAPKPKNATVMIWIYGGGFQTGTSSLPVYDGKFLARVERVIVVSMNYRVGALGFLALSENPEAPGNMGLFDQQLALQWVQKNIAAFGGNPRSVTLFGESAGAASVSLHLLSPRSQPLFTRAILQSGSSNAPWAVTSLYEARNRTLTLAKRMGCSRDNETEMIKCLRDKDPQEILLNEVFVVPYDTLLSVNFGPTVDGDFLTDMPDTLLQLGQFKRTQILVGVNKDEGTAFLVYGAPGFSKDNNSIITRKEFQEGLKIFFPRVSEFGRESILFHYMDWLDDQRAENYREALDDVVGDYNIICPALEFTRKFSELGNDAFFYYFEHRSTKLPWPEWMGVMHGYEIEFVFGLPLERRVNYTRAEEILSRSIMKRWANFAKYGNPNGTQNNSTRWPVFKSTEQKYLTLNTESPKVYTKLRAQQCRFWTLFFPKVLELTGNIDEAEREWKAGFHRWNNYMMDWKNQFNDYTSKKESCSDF
# Description: Inhibition of horse serum BuChE by Ellman's method
# SH-SY5Y [4] = assay: Neuroprotection against okadaic acid-induced human SH-SY5Y cell death assessed as reduction in cell death at 0.1 to 1 uM; type: functional, cell-based
# [5] = biological target: Acetylcholinesterase (Homo sapiens) (UniProt P22303); assay: Antagonist activity at human nAChR in human SH-SY5Y cells assessed as inhibition of 70 mM K+ induced cytosolic Ca2+ signal at 0.3 to 100 uM; type: functional, cell-based
# Sequence of Acetylcholinesterase (Homo sapiens) (P22303 whole entry): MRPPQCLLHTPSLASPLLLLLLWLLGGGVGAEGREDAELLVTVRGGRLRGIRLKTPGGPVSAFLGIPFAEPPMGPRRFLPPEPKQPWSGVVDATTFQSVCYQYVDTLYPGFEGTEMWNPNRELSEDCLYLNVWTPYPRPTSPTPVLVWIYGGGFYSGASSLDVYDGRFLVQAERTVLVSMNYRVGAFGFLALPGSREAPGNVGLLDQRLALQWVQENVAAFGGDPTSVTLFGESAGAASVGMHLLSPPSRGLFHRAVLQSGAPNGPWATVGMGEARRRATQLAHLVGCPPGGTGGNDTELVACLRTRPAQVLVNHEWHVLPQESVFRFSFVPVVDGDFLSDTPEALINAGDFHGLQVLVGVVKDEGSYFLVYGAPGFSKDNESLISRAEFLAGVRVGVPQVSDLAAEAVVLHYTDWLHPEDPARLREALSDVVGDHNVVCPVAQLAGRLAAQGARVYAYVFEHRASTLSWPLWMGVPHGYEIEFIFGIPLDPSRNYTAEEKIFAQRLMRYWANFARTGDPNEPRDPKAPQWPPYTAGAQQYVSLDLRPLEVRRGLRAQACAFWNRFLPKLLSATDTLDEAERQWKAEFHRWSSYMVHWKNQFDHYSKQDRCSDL
# SH-SY5Y [6] = assay: Neuroprotection against okadaic acid-induced human SH-SY5Y cell death assessed as reduction in LDH release at 0.1 to 1 uM relative to control; type: functional; design: scale not given: the % may be the effect or the level left
# [7] = biological target: Acetylcholinesterase (Homo sapiens) (UniProt P22303); assay: Antagonist activity at human nAChR in human SH-SY5Y cells assessed as inhibition of acetylcholine-induced cytosolic Ca2+ signal at 0.3 to 100 uM; type: functional, cell-based
# SH-SY5Y [8] = assay: Neuroprotection against okadaic acid-induced human SH-SY5Y cell death assessed as reduction in LDH release at 0.3 uM relative to control; type: functional; design: scale not given: the % may be the effect or the level left
smiles,measurement,setting,value
N#Cc1cc2c(N)c3c(nc2nc1Cl)CCCC3,IC50,Acetylcholinesterase [1],5 µM
same,Activity,SH-SY5Y [2],4%
same,IC50,Acetylcholinesterase [3],> 100 µM
same,IC50,Cholinesterase,> 30 µM
N#Cc1cc2c(N)c3c(nc2nc1N1CCCCC1)CCCC3,IC50,Acetylcholinesterase [1],0.025 µM
same,Activity,SH-SY5Y [2],19%
same,IC50,Acetylcholinesterase [3],1 µM
same,IC50,Cholinesterase,3.6 µM
C#CCNc1nc2nc3c(c(N)c2cc1C#N)CCCC3,IC50,Acetylcholinesterase [1],0.03 µM
same,Activity,SH-SY5Y [2],20%
same,IC50,Acetylcholinesterase [3],1.53 µM
same,IC50,Cholinesterase,2.6 µM
COc1nc2nc3c(c(N)c2c(-c2ccccc2)c1C#N)CCCC3,IC50,Acetylcholinesterase [1],0.08 µM
same,Activity,SH-SY5Y [2],12%
same,IC50,Acetylcholinesterase [3],5 µM
same,IC50,Cholinesterase,5.1 µM
N#Cc1cc2c(N)c3c(nc2nc1Cl)CCN(Cc1ccccc1)C3,IC50,Acetylcholinesterase [1],0.35 µM
same,Activity,SH-SY5Y [2],20%
same,IC50,Acetylcholinesterase [3],> 100 µM
same,IC50,Cholinesterase,> 100 µM
CCOc1nc2nc3c(c(N)c2cc1C#N)CCCC3,IC50,Acetylcholinesterase [1],0.05 µM
same,Activity,SH-SY5Y [2],29%
same,IC50,Acetylcholinesterase [3],1 µM
same,IC50,Cholinesterase,> 30 µM
CN(C)c1nc2nc3c(c(N)c2c(-c2ccccc2)c1C#N)CCCC3,IC50,Acetylcholinesterase [1],0.09 µM
same,Activity,SH-SY5Y [2],3%
same,IC50,Acetylcholinesterase [3],4.4 µM
same,IC50,Cholinesterase,7.5 µM
COc1nc2nc3c(c(N)c2cc1C#N)CN(Cc1ccccc1)CC3,IC50,Acetylcholinesterase [1],0.35 µM
same,Activity,SH-SY5Y [2],11%
same,IC50,Acetylcholinesterase [3],5 µM
same,IC50,Cholinesterase,> 100 µM
COc1nc2nc3c(c(N)c2cc1C#N)CCCC3,Activity,SH-SY5Y [4],Active
same,inhibition,[5],inactive
same,IC50,Acetylcholinesterase [1],0.06 µM
same,Activity,SH-SY5Y [2],23%
same,IC50,Acetylcholinesterase [3],1.6 µM
same,Activity,SH-SY5Y [6],49%
same,IC50,Cholinesterase,9.6 µM
same,inhibition,[7],inactive
same,Activity,SH-SY5Y [8],65%
N#Cc1cc2c(N)c3c(nc2nc1N1CCCC1)CCCC3,IC50,Acetylcholinesterase [1],0.043 µM
same,Activity,SH-SY5Y [2],29%
same,IC50,Acetylcholinesterase [3],0.16 µM
same,IC50,Cholinesterase,5.6 µM
CN(C)c1nc2nc3c(c(N)c2cc1C#N)CCCC3,IC50,Acetylcholinesterase [1],0.014 µM
same,Activity,SH-SY5Y [2],6%
same,IC50,Acetylcholinesterase [3],0.1 µM
same,IC50,Cholinesterase,5.2 µM
CC(=O)N[C@@H](CS)C(=O)O [ACETYLCYSTEINE],Activity,SH-SY5Y [2],33%
N#Cc1c(Cl)nc2nc3c(c(N)c2c1-c1ccccc1)CCCC3,IC50,Acetylcholinesterase [1],> 30 µM
same,Activity,SH-SY5Y [2],8%
same,IC50,Acetylcholinesterase [3],> 100 µM
same,IC50,Cholinesterase,> 30 µM
